According to patent US10119079B2, “Composition for removal of sulfur-containing compounds” (KURARAY CO., LTD., priority 2014, dated 2018):
In brackets after ≈: the same amount, converted by molar mass.

Tests used:
[1] = Removal of H2S from crude oil in autoclave (Examples 2-3, Comparative Examples 1-2); conditions: liquid added at 1% by mass, 80° C., 5 hours, 800 rpm; for H2S concentration of the gas phase part after the reaction: initial 2,580-2,800 ppm
Description: In a 100-mL autoclave equipped with a thermometer and a stirrer, 30 mL of a crude oil collected in Japan was charged and stirred until an H2S concentration of a gas phase part became constant. Thereafter, the concentration was measured with RX-517 (manufactured by Riken Kiki Co., Ltd.) and found to be 2,800 ppm. Subsequently, a composition liquid prepared by mixing PEG-200 and NL/MOL in a mass ratio of 1/1 was added in a concentration of 1% by mass relative to the crude oil. At this time, the addition amount of NL/MOL was 0.6 mmol, and the presence amount of H2S within the apparatus was 0.05 mmol. Thereafter, the inside of the apparatus was subjected to temperature rise to 80° C. while stirring at 800 rpm, and the contents were allowed to react with each other for 5 hours. After the reaction, the reaction mixture was cooled to room temperature, an H2S concentration of the gas phase part was measured and found to be 2 ppm, and a removal efficiency was 99.9%.
(§1) In a 100-mL autoclave equipped with a thermometer and a stirrer, 30 mL of a crude oil collected in Japan was charged and stirred until an H2S concentration of a gas phase part became constant. Thereafter, the concentration was measured with RX-517 (manufactured by Riken Kiki. Co., Ltd.) and found to be 2,580 ppm. Subsequently, a 50% by mass MGL aqueous solution was added in a concentration of 1% by mass relative to the crude oil. At this time, the addition amount of MGL was 0.9 mmol, and the presence amount of H2S within the apparatus was 0.05 mmol. Thereafter, the inside of the apparatus was subjected to temperature rise to 80° C. while stirring at 800 rpm, and the contents were allowed to react with each other for 5 hours. After the reaction, the reaction mixture was cooled to room temperature, an H2S concentration of the gas phase part was measured and found to be 70 ppm, and a removal efficiency was 97.3%.
as §1, with “Kiki” for “Kiki.”, “2,714” for “2,580”, “glutaraldehyde” for “MGL”, “1.0” for “0.9”, “100” for “70”, “96.3%.” for “97.3%.”
In a 100-mL autoclave equipped with a thermometer and a stirrer, 30 mL of a crude oil collected in Japan was charged and stirred until an H2S concentration of a gas phase part became constant. Thereafter, the concentration was measured with RX-517 (manufactured by Riken Kiki Co., Ltd.) and found to be 2,600 ppm. Subsequently, a 40% by mass glyoxal aqueous solution (manufactured by Wako Pure Chemical Industries, Ltd.) was added in a concentration of 1% by mass relative to the crude oil. At this time, the addition amount of glyoxal was 1.8 mmol, and the presence amount of H2S within the apparatus was 0.04 mmol. Thereafter, the inside of the apparatus was subjected to temperature rise to 80° C. while stirring at 800 rpm, and the contents were allowed to react with each other for 5 hours. After the reaction, the reaction mixture was cooled to room temperature, an H2S concentration of the gas phase part was measured and found to be 498 ppm, and a removal efficiency was 80.8%.

[2] = tested on: 6-week-old male CRj:CD(SD) rat; experiment: Oral toxicity, 14-day repeated oral administration; type: in vivo
Source text: A test substance which had been emulsified and dispersed in a 2%-gum arabic aqueous solution (containing 0.5%-Tween 80) was compulsorily administered in a 6-week-old male CRj:CD(SD) rat once a day for 14 days by using an oral sonde. A body weight variation and a general state during the administration period were observed. The rat was fasted for one day from the final administration date (drinking was freely taken), and on the day after final administration, taking a blood sample (for various blood tests) and mass measurement of major organs were performed. In addition, with respect to the liver, kidney, spleen, and testis, a histopathological examination (optical microscopic observation of HE-stained thin sliced tissue piece) was also carried out. A dose was set to 1,000, 250, 60, 15, and 0 mg/kg/day (administration liquid volume=1 mL/100 g-body weight/day), respectively, and five animals were used for each dosage.
(1) NL (GC purity: 99.7%)
(2) Glutaraldehyde (water content: 101 ppm, GC purity: 99.8%)
As a result of the test, with respect to NL, no fatal case was admitted even at the highest dose of 1,000 mg/kg/day.

[3] = tested on: sludge of the sewage treatment plant; experiment: Bactericidal test on sludge (MTT method); type: cell-based; conditions: sludge bacterial culture, about 25° C., 24 and 48 hours, MTT visual
Description: To a synthetic sewer water prepared by dissolving 5 g of each of glucose, peptone, and monopotassium dihydrogen phosphate in one liter of water and adjusting the pH at 7.0±1.0 with sodium hydroxide, a sludge of the sewage treatment plant located in the Mizushima district, Kurashiki-shi, Okayama Prefecture, Japan was added in an amount of 30 ppm as converted to dry mass, thereby preparing a bacterial culture. Meanwhile, a test substance was diluted with distilled water on a scale of […] in a final concentration of 1,000 to 0.004 ppm (common ratio=4) on a 24-well microplate, thereby preparing test solutions. Two wells were used for every concentration. As a comparison target, (distilled water+bacterial culture) was defined as “bacterial culture blank”, and distilled water alone was defined as “blank”.
The above-prepared bacterial culture and test solution were mixed in a volume ratio of 1/1, and the mixture was allowed to stand within a thermostatic tank at ambient temperature (about 25° C.) for 24 hours and 48 hours, respectively. A level of sludge influence at each concentration of the test substance was visually observed by means of the MTT method. An MTT reagent is converted by mitochondria as a microorganism in the sludge to form formazan, thereby developing a blue color.
(1) Mixture of NL and MOL (GC purity: 98.7%, NL/MOL=59/41) […]

[4] = tested on: Pseudokirchneriella subcapitata; experiment: Alga growth inhibition test (OECD Test Guidelines No. 201); type: cell-based; conditions: Selenastrum capricornutum; algae growth inhibition, 23° C., 72 hours; read-out: ErC50 (72 hr)
Description: An alga growth inhibition test of a test substance was carried out with reference to OECD Test Guidelines No. 201. That is, each of the following test substances was diluted with a test medium to a prescribed dosage. A liquid suspension of algae which had been grown to an exponential growth phase by preculture was added in an initial concentration of 1×10^4 cells/mL. The liquid suspension was subjected to shaking culture at 23° C. using a light irradiation-type bio shaker (BR-180LF, manufactured by Taitec Corporation), the number of algae cells at an elapsed time of 24, 48, and 72 hours, respectively after the start of the test was counted with a flow cytometer (Cell Lab Quant SC, manufactured by Beckman Coulter, Inc.), and a growth ratio at each test dosage was calculated while defining a growth ratio of the normal control as 100%. In addition, ErC50 was calculated according to an equation of an approximate curve of a graph plotting a growth inhibition ratio.
Algae: Pseudokirchneriella subcapitata
Dosage of Test Substance:
Each of the test substance (1) and the test substance (2): 100, 32, 10, 3.2, 1, 0.32 mg/L (common ratio: √10), and 0 mg/L (normal control)
Standard substance: 3.2, 1, 0.32 mg/L, and 0 mg/L (normal control)

[5] = rat, oral, once a day for 14 days

Row | Compound | removal efficiency [1] [%] | H2S concentration of the gas phase part after the reaction [1] [ppm] | NOEL (maximum no-effect level) [2, 5] [mg/kg] | Sterilizing concentration [3] [ppm] | EC50 [4] [µg/mL] | classification as deleterious substance ([2]; rat oral toxicity test) | fatal cases ([2]; rat, oral, once a day for 14 days, highest dose of 1,000 mg/kg/day)
1 | O=CCCCC=O [Glutaraldehyde, glutaraldehyde] | 96.3 | 100 | 5 | 63 | 9 (≈ 89.9 µM) |  | 
2 | CC(CC=O)CC=O [MGL, 3-methylglutaraldehyde] | 97.3 | 70 |  |  |  |  | 
3 | O=CCCCCCCCC=O [NL, 1,9-nonanedial] |  |  | 250 |  |  | not corresponding to a “deleterious substance” | no fatal case
4 | O=CC=O [glyoxal] | 80.8 | 498 |  |  |  |  | 
